# Results published in PubChem BioAssay (NCI).
#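 Results reflect a 48-hour exposure of cells in 96-well plates to compound at five concentrations. TGI is the concentration that stops growth completely.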
# Experiments:
# Assay in all cases: DTP human tumour cell line panel, 48 h
# 786-0 renal = test system: 786-0 renal
# A498 renal = test system: A498 renal
# A549 NSCLC = test system: A549 NSCLC
# ACHN renal = test system: ACHN renal
# CAKI-1 renal = test system: CAKI-1 renal
# CCRF-CEM leukemia = test system: CCRF-CEM leukemia
# COLO 205 colon = test system: COLO 205 colon
# DLD-1 colon = test system: DLD-1 colon
# DMS 114 small cell lung = test system: DMS 114 small cell lung
# DMS 273 small cell lung = test system: DMS 273 small cell lung
# EKVX NSCLC = test system: EKVX NSCLC
# HCC-2998 colon = test system: HCC-2998 colon
# HCT-116 colon = test system: HCT-116 colon
# HCT-15 colon = test system: HCT-15 colon
# HL-60(TB) leukemia = test system: HL-60(TB) leukemia
# HOP-18 NSCLC = test system: HOP-18 NSCLC
# HOP-62 NSCLC = test system: HOP-62 NSCLC
# HOP-92 NSCLC = test system: HOP-92 NSCLC
# HT29 colon = test system: HT29 colon
# IGROV1 ovarian = test system: IGROV1 ovarian
# K-562 leukemia = test system: K-562 leukemia
# KM12 colon = test system: KM12 colon
# KM20L2 colon = test system: KM20L2 colon
# LOX IMVI melanoma = test system: LOX IMVI melanoma
# LXFL 529 NSCLC = test system: LXFL 529 NSCLC
# M14 melanoma = test system: M14 melanoma
# M19-MEL melanoma = test system: M19-MEL melanoma
# MALME-3M melanoma = test system: MALME-3M melanoma
# MOLT-4 leukemia = test system: MOLT-4 leukemia
# NCI-H226 lung = test system: NCI-H226 lung
# NCI-H23 lung = test system: NCI-H23 lung
# NCI-H460 lung = test system: NCI-H460 lung
# NCI-H522 lung = test system: NCI-H522 lung
# OVCAR-4 ovarian = test system: OVCAR-4 ovarian
# OVCAR-5 ovarian = test system: OVCAR-5 ovarian
# OVCAR-8 ovarian = test system: OVCAR-8 ovarian
# RPMI-8226 leukemia = test system: RPMI-8226 leukemia
# RXF 393 renal = test system: RXF 393 renal
# SF-268 CNS = test system: SF-268 CNS
# SF-295 CNS = test system: SF-295 CNS
# SF-539 CNS = test system: SF-539 CNS
# SK-MEL-2 melanoma = test system: SK-MEL-2 melanoma
# SK-MEL-28 melanoma = test system: SK-MEL-28 melanoma
# SK-MEL-5 melanoma = test system: SK-MEL-5 melanoma
# SK-OV-3 ovarian = test system: SK-OV-3 ovarian
# SN12C renal = test system: SN12C renal
# SNB-19 CNS = test system: SNB-19 CNS
# SNB-75 CNS = test system: SNB-75 CNS
# SNB-78 CNS = test system: SNB-78 CNS
# SW-620 colon = test system: SW-620 colon
# TK-10 renal = test system: TK-10 renal
# U251 CNS = test system: U251 CNS
# UACC-257 melanoma = test system: UACC-257 melanoma
# UACC-62 melanoma = test system: UACC-62 melanoma
# UO-31 renal = test system: UO-31 renal
# XF 498 CNS = test system: XF 498 CNS
# OVCAR-3 ovarian = test system: OVCAR-3 ovarian
smiles,measurement,setting,value
CC(C)(C)C1CCC2(CC1)c1[nH]c3ccccc3c1C1(CCC(C(C)(C)C)CC1)c1[nH]c3ccccc3c12 (stereo not drawn),TGI,786-0 renal,> 100 µM
same,TGI,A498 renal,> 100 µM
same,TGI,A549 NSCLC,> 100 µM
same,TGI,ACHN renal,> 100 µM
same,TGI,CAKI-1 renal,> 100 µM
same,TGI,CCRF-CEM leukemia,> 100 µM
same,TGI,COLO 205 colon,> 100 µM
same,TGI,DLD-1 colon,> 100 µM
same,TGI,DMS 114 small cell lung,57.3 µM
same,TGI,DMS 273 small cell lung,> 100 µM
same,TGI,EKVX NSCLC,> 100 µM
same,TGI,HCC-2998 colon,> 100 µM
same,TGI,HCT-116 colon,> 100 µM
same,TGI,HCT-15 colon,> 100 µM
same,TGI,HL-60(TB) leukemia,> 100 µM
same,TGI,HOP-18 NSCLC,> 100 µM
same,TGI,HOP-62 NSCLC,> 100 µM
same,TGI,HOP-92 NSCLC,> 100 µM
same,TGI,HT29 colon,> 100 µM
same,TGI,IGROV1 ovarian,> 100 µM
same,TGI,K-562 leukemia,> 100 µM
same,TGI,KM12 colon,> 100 µM
same,TGI,KM20L2 colon,> 100 µM
same,TGI,LOX IMVI melanoma,> 100 µM
same,TGI,LXFL 529 NSCLC,> 100 µM
same,TGI,M14 melanoma,> 100 µM
same,TGI,M19-MEL melanoma,> 100 µM
same,TGI,MALME-3M melanoma,> 100 µM
same,TGI,MOLT-4 leukemia,> 100 µM
same,TGI,NCI-H226 lung,> 100 µM
same,TGI,NCI-H23 lung,> 100 µM
same,TGI,NCI-H460 lung,> 100 µM
same,TGI,NCI-H522 lung,> 100 µM
same,TGI,OVCAR-4 ovarian,> 100 µM
same,TGI,OVCAR-5 ovarian,> 100 µM
same,TGI,OVCAR-8 ovarian,> 100 µM
same,TGI,RPMI-8226 leukemia,> 100 µM
same,TGI,RXF 393 renal,> 100 µM
same,TGI,SF-268 CNS,> 100 µM
same,TGI,SF-295 CNS,> 100 µM
same,TGI,SF-539 CNS,> 100 µM
same,TGI,SK-MEL-2 melanoma,> 100 µM
same,TGI,SK-MEL-28 melanoma,> 100 µM
same,TGI,SK-MEL-5 melanoma,> 100 µM
same,TGI,SK-OV-3 ovarian,> 100 µM
same,TGI,SN12C renal,> 100 µM
same,TGI,SNB-19 CNS,> 100 µM
same,TGI,SNB-75 CNS,> 100 µM
same,TGI,SNB-78 CNS,> 100 µM
same,TGI,SW-620 colon,> 100 µM
same,TGI,TK-10 renal,> 100 µM
same,TGI,U251 CNS,> 100 µM
same,TGI,UACC-257 melanoma,> 100 µM
same,TGI,UACC-62 melanoma,> 100 µM
same,TGI,UO-31 renal,> 100 µM
same,TGI,XF 498 CNS,> 100 µM
Brc1cccc(C=NC23CC4CC(CC(C4)C2)C3)c1,TGI,786-0 renal,> 100 µM
same,TGI,A498 renal,> 100 µM
same,TGI,A549 NSCLC,> 100 µM
same,TGI,ACHN renal,> 100 µM
same,TGI,CAKI-1 renal,> 100 µM
same,TGI,CCRF-CEM leukemia,> 100 µM
same,TGI,COLO 205 colon,> 100 µM
same,TGI,DLD-1 colon,> 100 µM
same,TGI,DMS 114 small cell lung,> 100 µM
same,TGI,DMS 273 small cell lung,> 100 µM
same,TGI,EKVX NSCLC,> 100 µM
same,TGI,HCC-2998 colon,> 100 µM
same,TGI,HCT-116 colon,> 100 µM
same,TGI,HCT-15 colon,> 100 µM
same,TGI,HL-60(TB) leukemia,> 100 µM
same,TGI,HOP-18 NSCLC,> 100 µM
same,TGI,HOP-62 NSCLC,> 100 µM
same,TGI,HOP-92 NSCLC,> 100 µM
same,TGI,HT29 colon,> 100 µM
same,TGI,IGROV1 ovarian,> 100 µM
same,TGI,K-562 leukemia,> 100 µM
same,TGI,KM12 colon,> 100 µM
same,TGI,KM20L2 colon,> 100 µM
same,TGI,LOX IMVI melanoma,> 100 µM
same,TGI,LXFL 529 NSCLC,> 100 µM
same,TGI,M14 melanoma,> 100 µM
same,TGI,M19-MEL melanoma,> 100 µM
same,TGI,MALME-3M melanoma,> 100 µM
same,TGI,MOLT-4 leukemia,> 100 µM
same,TGI,NCI-H226 lung,> 100 µM
same,TGI,NCI-H23 lung,> 100 µM
same,TGI,NCI-H460 lung,> 100 µM
same,TGI,NCI-H522 lung,> 100 µM
same,TGI,OVCAR-3 ovarian,> 100 µM
same,TGI,OVCAR-4 ovarian,> 100 µM
same,TGI,OVCAR-5 ovarian,> 100 µM
same,TGI,OVCAR-8 ovarian,> 100 µM
same,TGI,RPMI-8226 leukemia,> 100 µM
same,TGI,RXF 393 renal,> 100 µM
same,TGI,SF-268 CNS,> 100 µM
same,TGI,SF-295 CNS,> 100 µM
same,TGI,SF-539 CNS,> 100 µM
same,TGI,SK-MEL-2 melanoma,> 100 µM
same,TGI,SK-MEL-28 melanoma,> 100 µM
same,TGI,SK-MEL-5 melanoma,> 100 µM
same,TGI,SK-OV-3 ovarian,> 100 µM
same,TGI,SN12C renal,> 100 µM
same,TGI,SNB-19 CNS,> 100 µM
same,TGI,SNB-75 CNS,> 100 µM
same,TGI,SNB-78 CNS,> 100 µM
same,TGI,SW-620 colon,> 100 µM
same,TGI,TK-10 renal,> 100 µM
same,TGI,U251 CNS,> 100 µM
same,TGI,UACC-257 melanoma,> 100 µM
same,TGI,UACC-62 melanoma,> 100 µM
same,TGI,UO-31 renal,> 100 µM
same,TGI,XF 498 CNS,> 100 µM
